Consider three molecules from ChEMBL document CHEMBL1201862, “PubChem BioAssay data set” (2004).

The target in assay [1] is Apoptotic protease-activating factor 1 (Homo sapiens, UniProt O14727). It is filed as functional.
The target in the next assay is T1, Protein RecA (Mycobacterium tuberculosis, UniProt P9WHJ3).
T1 sequence (P9WHJ3 whole entry): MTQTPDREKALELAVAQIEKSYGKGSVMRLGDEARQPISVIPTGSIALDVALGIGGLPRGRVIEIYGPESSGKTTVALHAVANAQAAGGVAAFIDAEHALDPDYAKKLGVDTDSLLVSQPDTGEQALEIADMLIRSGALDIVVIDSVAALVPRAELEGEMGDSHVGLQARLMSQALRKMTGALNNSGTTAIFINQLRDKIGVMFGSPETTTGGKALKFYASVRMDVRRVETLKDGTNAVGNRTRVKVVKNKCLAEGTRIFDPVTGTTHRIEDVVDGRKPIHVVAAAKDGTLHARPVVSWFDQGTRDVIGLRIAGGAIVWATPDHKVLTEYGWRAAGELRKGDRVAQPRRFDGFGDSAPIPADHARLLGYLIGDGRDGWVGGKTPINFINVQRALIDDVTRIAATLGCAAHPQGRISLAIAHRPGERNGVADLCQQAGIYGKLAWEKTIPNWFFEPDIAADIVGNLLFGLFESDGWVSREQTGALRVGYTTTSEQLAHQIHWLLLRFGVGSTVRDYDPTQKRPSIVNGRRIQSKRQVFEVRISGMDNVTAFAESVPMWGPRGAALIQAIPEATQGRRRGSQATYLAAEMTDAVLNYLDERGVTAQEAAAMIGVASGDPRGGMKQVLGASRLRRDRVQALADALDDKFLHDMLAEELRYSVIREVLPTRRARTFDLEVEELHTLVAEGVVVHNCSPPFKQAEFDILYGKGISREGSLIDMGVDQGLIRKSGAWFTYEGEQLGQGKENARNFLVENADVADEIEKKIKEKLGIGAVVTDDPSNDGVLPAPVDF
Put plainly: Fluorescence Cell-Free Homogeneous Dose Retest to Identify Inhibitors of RecA-Intein Splicing Activity. [Related pubchem assays (depositor defined):AID2097, AID2223, AID489010, AID492950]. The format is functional.

In assay [2] the target is T2, Long-chain-fatty-acid--AMP ligase FadD28 (Mycobacterium tuberculosis, UniProt P9WQ59).
T2 sequence (P9WQ59 whole entry): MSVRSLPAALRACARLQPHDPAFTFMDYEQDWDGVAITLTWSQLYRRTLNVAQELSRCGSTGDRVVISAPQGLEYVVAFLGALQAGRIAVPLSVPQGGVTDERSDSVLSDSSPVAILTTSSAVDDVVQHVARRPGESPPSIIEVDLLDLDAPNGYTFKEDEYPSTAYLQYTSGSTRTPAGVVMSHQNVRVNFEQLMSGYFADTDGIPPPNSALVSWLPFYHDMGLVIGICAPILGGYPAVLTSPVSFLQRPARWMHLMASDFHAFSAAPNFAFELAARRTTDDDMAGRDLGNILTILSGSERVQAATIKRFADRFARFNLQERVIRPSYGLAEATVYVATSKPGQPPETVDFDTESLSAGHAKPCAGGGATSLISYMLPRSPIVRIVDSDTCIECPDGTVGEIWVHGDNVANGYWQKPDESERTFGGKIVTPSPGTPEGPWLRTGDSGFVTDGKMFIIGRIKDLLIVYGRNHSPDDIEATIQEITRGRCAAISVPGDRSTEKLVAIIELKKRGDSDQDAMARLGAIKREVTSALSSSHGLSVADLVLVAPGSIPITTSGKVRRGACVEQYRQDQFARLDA
Put plainly: Fluorescence polarization aasay to screen for inhibitors that compete for the binding of FadD28 to a bisubstrate Measured in Biochemical System Using Plate Reader - 2147-01_Inhibitor_Dose_CherryPick_Activity. The format is functional, Mycobacterium tuberculosis H37Rv.

Assay [3] concerns the target Phosphorylase b kinase gamma catalytic chain, liver/testis isoform (Homo sapiens, UniProt P15735). It is filed as functional.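 Also: PHKG2 measured as one member of a kinome-wide kinase panel.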
Assay [4] concerns the target Serine/threonine-protein kinase PLK4 (Homo sapiens, UniProt O00444). It is filed as functional.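 Also: PLK4 measured as one member of a kinome-wide kinase profiling panel.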
The target in assay [5] is Calcium/calmodulin-dependent protein kinase type II subunit gamma (Homo sapiens, UniProt Q13555). It is filed as functional.
The target in assay [6] is Rho-associated protein kinase 2 (Homo sapiens, UniProt O75116). The format is functional.
Assay [7] concerns the target Mitogen-activated protein kinase kinase kinase 20 (Homo sapiens, UniProt Q9NYL2). The format is functional.
Assay [8] has as its target Serine/threonine-protein kinase Nek4 (Homo sapiens, UniProt P51957). It is filed as functional.
Assay [9] has as its target Tyrosine-protein kinase FRK (Homo sapiens, UniProt P42685). The format is functional.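 Also: FRK tested as one member of a kinome panel.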

Calls of active or inactive are those of the source. Where only a bound is given, the exact number is not on record here.

Calcium/calmodulin-dependent protein kinase type II subunit gamma, sequence (Q13555 whole entry): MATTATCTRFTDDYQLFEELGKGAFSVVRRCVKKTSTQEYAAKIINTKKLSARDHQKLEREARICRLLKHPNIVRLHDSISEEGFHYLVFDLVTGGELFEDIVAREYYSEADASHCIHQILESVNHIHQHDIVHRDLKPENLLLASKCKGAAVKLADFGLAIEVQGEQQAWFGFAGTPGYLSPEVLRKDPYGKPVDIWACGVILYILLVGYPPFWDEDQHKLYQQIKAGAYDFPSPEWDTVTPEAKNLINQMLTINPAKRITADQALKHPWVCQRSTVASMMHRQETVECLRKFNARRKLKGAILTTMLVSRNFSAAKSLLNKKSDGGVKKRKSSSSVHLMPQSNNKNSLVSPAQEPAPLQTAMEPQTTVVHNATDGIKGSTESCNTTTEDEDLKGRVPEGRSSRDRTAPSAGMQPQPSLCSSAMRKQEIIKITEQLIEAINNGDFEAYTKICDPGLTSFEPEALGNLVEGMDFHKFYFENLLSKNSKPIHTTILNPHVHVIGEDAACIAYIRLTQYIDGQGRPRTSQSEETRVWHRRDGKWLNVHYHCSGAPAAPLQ
Tyrosine-protein kinase FRK, sequence (P42685 whole entry): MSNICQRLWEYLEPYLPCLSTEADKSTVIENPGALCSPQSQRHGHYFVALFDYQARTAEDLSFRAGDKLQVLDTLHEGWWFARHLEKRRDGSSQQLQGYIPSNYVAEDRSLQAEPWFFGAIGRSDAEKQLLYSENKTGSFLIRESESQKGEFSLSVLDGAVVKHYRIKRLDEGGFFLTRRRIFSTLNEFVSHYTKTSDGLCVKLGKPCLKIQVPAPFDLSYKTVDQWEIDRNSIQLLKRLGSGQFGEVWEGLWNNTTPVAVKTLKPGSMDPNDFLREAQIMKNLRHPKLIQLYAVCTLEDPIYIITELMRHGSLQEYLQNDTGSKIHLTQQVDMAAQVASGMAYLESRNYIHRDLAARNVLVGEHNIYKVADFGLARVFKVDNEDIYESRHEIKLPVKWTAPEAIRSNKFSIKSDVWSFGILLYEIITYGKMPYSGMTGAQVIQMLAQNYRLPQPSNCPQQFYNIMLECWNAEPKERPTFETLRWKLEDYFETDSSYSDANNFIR
Apoptotic protease-activating factor 1, sequence (O14727 whole entry): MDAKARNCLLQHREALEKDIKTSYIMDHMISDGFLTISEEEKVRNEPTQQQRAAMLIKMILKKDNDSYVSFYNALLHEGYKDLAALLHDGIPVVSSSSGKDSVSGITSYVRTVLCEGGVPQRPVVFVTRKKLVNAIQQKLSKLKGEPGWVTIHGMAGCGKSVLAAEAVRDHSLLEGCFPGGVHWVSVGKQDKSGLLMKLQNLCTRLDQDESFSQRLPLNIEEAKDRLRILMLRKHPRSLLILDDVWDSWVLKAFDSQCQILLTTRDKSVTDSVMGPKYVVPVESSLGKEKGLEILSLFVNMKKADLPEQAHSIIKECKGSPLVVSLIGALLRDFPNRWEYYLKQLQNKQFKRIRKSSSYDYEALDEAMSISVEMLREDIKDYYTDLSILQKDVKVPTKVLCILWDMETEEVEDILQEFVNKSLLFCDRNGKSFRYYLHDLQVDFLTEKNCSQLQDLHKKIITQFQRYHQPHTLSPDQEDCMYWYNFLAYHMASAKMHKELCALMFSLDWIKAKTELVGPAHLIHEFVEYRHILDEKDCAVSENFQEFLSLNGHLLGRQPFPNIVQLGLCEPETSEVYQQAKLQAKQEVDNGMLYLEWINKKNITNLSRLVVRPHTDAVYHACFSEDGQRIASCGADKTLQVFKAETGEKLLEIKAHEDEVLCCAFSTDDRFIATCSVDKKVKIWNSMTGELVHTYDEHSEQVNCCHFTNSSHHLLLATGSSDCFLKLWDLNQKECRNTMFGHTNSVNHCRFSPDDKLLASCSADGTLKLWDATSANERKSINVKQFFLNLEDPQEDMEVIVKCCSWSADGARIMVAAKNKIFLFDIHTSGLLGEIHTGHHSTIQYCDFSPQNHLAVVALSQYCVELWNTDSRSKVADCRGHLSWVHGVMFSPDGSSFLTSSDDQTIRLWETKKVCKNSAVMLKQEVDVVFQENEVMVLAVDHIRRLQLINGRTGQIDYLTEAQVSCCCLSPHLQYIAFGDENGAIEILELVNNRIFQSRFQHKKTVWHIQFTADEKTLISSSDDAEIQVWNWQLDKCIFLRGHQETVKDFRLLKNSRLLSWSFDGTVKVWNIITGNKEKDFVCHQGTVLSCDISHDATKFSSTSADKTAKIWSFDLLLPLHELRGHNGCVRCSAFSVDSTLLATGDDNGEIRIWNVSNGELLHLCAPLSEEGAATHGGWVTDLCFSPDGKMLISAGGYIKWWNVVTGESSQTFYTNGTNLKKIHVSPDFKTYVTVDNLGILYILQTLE
Rho-associated protein kinase 2, sequence (O75116 whole entry): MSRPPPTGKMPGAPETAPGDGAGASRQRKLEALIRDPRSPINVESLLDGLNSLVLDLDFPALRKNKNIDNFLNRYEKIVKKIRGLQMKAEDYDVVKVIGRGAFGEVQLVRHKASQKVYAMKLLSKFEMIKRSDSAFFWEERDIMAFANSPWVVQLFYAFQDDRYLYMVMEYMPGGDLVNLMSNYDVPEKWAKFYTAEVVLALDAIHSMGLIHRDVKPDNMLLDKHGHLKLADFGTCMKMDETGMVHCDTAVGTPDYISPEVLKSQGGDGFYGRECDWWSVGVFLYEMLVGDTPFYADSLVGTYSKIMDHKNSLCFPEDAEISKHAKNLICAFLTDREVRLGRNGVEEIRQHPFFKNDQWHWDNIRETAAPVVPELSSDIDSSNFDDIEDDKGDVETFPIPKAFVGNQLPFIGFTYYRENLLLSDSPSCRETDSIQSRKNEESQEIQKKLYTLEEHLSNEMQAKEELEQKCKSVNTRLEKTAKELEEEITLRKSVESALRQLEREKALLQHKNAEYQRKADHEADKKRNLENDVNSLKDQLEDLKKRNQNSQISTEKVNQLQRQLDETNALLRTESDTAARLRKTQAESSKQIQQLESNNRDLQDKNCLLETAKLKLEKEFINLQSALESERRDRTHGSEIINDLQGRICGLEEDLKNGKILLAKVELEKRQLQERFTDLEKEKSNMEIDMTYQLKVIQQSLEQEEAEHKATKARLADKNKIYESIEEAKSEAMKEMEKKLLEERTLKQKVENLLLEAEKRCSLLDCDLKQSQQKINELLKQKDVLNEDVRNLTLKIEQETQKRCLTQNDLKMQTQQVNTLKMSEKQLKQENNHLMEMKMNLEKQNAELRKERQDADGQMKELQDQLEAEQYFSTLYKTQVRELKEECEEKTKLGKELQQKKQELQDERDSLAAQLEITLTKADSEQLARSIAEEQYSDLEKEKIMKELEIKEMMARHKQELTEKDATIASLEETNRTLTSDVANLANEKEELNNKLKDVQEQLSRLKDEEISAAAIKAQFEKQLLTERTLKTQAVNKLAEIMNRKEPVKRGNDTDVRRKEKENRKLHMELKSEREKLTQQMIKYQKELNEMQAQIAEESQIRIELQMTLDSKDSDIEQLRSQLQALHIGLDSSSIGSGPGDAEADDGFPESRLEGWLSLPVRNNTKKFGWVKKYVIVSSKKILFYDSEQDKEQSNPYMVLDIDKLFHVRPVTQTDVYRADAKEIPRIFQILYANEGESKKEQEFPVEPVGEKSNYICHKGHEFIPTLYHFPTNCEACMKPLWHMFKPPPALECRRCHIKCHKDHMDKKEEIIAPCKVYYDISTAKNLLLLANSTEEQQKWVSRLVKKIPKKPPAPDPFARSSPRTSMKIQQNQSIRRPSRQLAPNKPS
Phosphorylase b kinase gamma catalytic chain, liver/testis isoform, sequence (P15735 whole entry, canonical isoform): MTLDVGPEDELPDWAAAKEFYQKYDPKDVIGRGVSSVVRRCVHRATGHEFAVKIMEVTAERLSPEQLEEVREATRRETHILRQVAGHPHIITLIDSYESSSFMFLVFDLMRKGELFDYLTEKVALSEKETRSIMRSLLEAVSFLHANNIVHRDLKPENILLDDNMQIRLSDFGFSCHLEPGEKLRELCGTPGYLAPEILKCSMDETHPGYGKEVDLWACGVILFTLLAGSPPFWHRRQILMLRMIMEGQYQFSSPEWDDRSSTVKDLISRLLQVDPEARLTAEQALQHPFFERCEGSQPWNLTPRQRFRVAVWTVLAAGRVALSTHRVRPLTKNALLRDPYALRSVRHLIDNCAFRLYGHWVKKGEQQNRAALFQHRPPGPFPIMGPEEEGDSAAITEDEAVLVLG
Mitogen-activated protein kinase kinase kinase 20, sequence (Q9NYL2 whole entry): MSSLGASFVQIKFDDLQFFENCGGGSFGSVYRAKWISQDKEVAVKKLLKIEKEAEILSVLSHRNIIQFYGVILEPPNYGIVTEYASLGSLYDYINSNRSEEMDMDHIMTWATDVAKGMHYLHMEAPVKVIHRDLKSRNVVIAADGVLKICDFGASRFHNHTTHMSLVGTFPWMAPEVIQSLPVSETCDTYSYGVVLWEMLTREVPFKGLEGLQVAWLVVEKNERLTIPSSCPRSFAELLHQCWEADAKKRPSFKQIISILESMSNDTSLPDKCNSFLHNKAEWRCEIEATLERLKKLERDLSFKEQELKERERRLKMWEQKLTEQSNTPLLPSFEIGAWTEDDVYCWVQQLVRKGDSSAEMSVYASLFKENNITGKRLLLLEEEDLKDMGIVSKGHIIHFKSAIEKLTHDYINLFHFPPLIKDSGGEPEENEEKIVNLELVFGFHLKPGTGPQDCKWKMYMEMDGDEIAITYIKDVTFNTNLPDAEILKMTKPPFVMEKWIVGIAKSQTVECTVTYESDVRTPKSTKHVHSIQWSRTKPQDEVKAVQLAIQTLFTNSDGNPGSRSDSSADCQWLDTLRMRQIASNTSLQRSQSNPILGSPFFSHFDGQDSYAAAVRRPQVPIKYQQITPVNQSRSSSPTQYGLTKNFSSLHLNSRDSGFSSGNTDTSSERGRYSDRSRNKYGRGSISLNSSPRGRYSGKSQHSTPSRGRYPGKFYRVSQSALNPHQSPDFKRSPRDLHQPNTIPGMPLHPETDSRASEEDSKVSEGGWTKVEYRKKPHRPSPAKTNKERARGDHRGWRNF

In general, IC50 refers to the concentration needed to halve the response being measured. For orientation: EC50 means the concentration that produces a half-maximal response. On to `Cc1ccc(NC2=C(NCCO)C(=O)c3ccccc3C2=O)cc1`, for which the IC50 in assay [1] is 15.7 µM (active). Moreover, at Protein RecA, the EC50 is 11.7 µM (active).

Usually AC50 stands for the midpoint of the concentration-response curve, whichever way the signal moves. As for `CC(/C=C1\SC(=S)N(NS(=O)(=O)c2ccc(C)cc2)C1=O)=C\c1ccccc1`, the AC50 in [2] was > 100 µM (inactive).

As a reminder, the Ki is a dissociation constant, usually derived from enzyme kinetics or from competition with a known ligand. The pKi is the Ki on a negative log10 scale, so that one unit is a factor of ten. As to `CN1CCC(c2c(O)cc(O)c3c(=O)cc(-c4ccccc4Cl)oc23)C(O)C1` (stereo unspecified), the Ki in [3] is > 5.01 µM (inactive); in [4], 3.16 µM (active); in assay [5] it was 1 µM (active); in assay [6], > 6.31 µM (inactive); in assay [7], > 7.94 µM (inactive); in assay [8], > 6.31 µM (inactive). Moreover, in assay [9], the Ki is > 2.51 µM (inactive). Besides, the pKi in [5] is 6.
